The values that follow come from patent publication US20240246918A1, “COMPOUNDS AND COMPOSITIONS AS EIF4E INHIBITORS AND THE USES THEREOF” (Ribometrix, Inc., priority 2022, published 2024).

Like-named read-outs stand apart in the source and are kept apart here.

One assay has as its target T1, human eIF4E protein (Homo sapiens, UniProt P06730).
T1 construct: purchased Novus NBP-45314
As to the kind of experiment: Biochemical competitive binding assay (TR-FRET competition, EDA-m7GDP-ATTO-647N probe). As to conditions: read-out: hEIF4E TR-FRET IC50. In short, it runs like this: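 His-tagged human eIF4E (4 nM) was preincubated with Eu-anti-His antibody (2.5 nM) and added to compound (11-point, 4-fold dilutions) for 15 min. Then 5 nM EDA-m7GDP-ATTO-647N was added for 15 min, in HEPES pH 7.5, 100 mM KCl. The 665/620 TR-FRET ratio was normalized to controls, and IC50 was taken from 4-parameter fits.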

In assay [1] the test system is COLO 205 colorectal tumor cells. Description: Tumor cell viability inhibition assay (CellTiter-Glo 2.0, 72 hours). The class given is cell-based. As to conditions: COLO 205 cell viability. In short, it runs like this: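 COLO 205 cells (1500/well, RPMI-1640 + 10% FBS) exposed for 72 h to an 11-point, 4-fold dilution series; cellular ATP read by CellTiter-Glo 2.0 luminescence. Data normalized to DMSO and maximum-inhibition controls; IC50 from 4-parameter curve fit.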

Assay [2] has as its system cyclin D1 protein levels in COLO 205 cells. Description: Cyclin D1 cellular inhibition assay (HTRF, 6 hours). As to conditions: 6 hours of compound treatment, Cyclin D1 protein levels by HTRF, read-out: COLO 205 6 h Cyclin D1 TR-FRET IC50. The class given is cell-based. The method, then: The effect of compound treatment on cyclin D1 protein levels in COLO 205 cells was assessed, as follows. Test compound plates were prepared with a Tecan D300e Digital Dispenser as 11-point concentration-response curves with a final DMSO concentration of 1%. COLO 205 (ATCC, CCL-222) colorectal tumor cells were seeded to assay-ready plates in RPMI-1640 medium supplemented with 10% FBS at 20,000 cells in a volume of 6 microliters per well. After 6 hours of compound treatment, cells were lysed and Cyclin D1 protein levels were assessed by an HTRF assay (PerkinElmer #64CYCD1ITPEG), according to the manufacturer's protocol. Time-resolved fluorescence was measured using a Clariostar Plus microplate reader (BMG Labtech) or equivalent. After normalization to the average of DMSO control and maximum inhibition control wells, concentration-response data were plotted and standard 4-parameter curve fitting (GraphPad Prism v9.4.1) was utilized to determine IC50 values.

T1 sequence (P06730 whole entry): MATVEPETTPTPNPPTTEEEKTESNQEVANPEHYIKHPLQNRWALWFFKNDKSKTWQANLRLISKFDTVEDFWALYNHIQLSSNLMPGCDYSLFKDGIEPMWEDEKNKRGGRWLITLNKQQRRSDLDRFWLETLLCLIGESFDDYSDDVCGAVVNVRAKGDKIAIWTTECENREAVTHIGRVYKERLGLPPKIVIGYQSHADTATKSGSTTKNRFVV

`Cc1cc(-c2cc(Cl)ccc2OCCn2c(C)nc3c(c2=O)C[C@H](N(C)[C@H]2CC[C@@](C)(O)C2)CC3)c2scc(C(=O)O)c2n1` (single isomer, unassigned) [Compound 183]: the IC50 at human eIF4E protein was under 0.1 µM; in assay [1] (Homo sapiens, COLO 205, 72 h), over 20 µM; in assay [2] (Homo sapiens, COLO 205, 6 h), over 20 µM.
Take `Cc1cc(-c2cc(Cl)ccc2OCCn2c(C)nc3c(c2=O)C[C@@H](N(C)[C@H]2CC[C@](C)(O)CC2)CC3)c2scc(C(=O)NS(C)(=O)=O)c2n1` (single isomer, unassigned) [Compound 206]: the IC50 on human eIF4E protein is under 0.1 µM; in assay [1] (Homo sapiens, COLO 205, 72 h), over 20 µM; in assay [2] (Homo sapiens, COLO 205, 6 h), over 20 µM.
Take `Cc1cc(-c2cc(Cl)ccc2OCCn2c(C)nc3c(c2=O)C[C@H](N(C)[C@H]2CC[C@](C)(O)CC2)CC3)c2scc(C(=O)NS(C)(=O)=O)c2n1` (single isomer, unassigned) [Compound 207]: the IC50 at human eIF4E protein was under 0.1 µM; in assay [1] (Homo sapiens, COLO 205, 72 h), over 20 µM; in assay [2] (Homo sapiens, COLO 205, 6 h) it was over 20 µM.
Regarding `Cc1cc(-c2cc(Cl)ccc2OCCn2c(C)nc3c(c2=O)C[C@H](N(C)C[C@H]2C[C@H](C(F)(F)F)C2)CC3)c2scc(C(=O)O)c2n1` (single isomer, unassigned) [Compound 213], the concentration for half-maximal inhibition (IC50) was under 0.1 µM on human eIF4E protein; under 5 µM in assay [1] (Homo sapiens, COLO 205, 72 h); under 5 µM in assay [2] (Homo sapiens, COLO 205, 6 h).
For the molecule `Cc1cc(-c2cc(Cl)ccc2OCCn2c(C)nc3c(c2=O)C[C@H](N(C)[C@H]2CC[C@@](C)(O)CC2)CC3)c2scc(C(=O)NS(C)(=O)=O)c2n1` (single isomer, unassigned) [Compound 214], the IC50 at human eIF4E protein was under 0.1 µM; in assay [1] (Homo sapiens, COLO 205, 72 h), over 20 µM; in assay [2] (Homo sapiens, COLO 205, 6 h), over 20 µM.
As for `Cc1cc(-c2cc(Cl)ccc2OCCn2c(C)nc3c(c2=O)C[C@@H](N(C)[C@H]2CC[C@@](C)(O)CC2)CC3)c2scc(C(=O)NS(C)(=O)=O)c2n1` (single isomer, unassigned) [Compound 215], the IC50 at human eIF4E protein is under 0.1 µM; in assay [1] (Homo sapiens, COLO 205, 72 h) it was over 20 µM; in assay [2] (Homo sapiens, COLO 205, 6 h), over 20 µM.
Turning to `COc1cc(CN(C)C2CCc3nc(C)n(CCOc4ccc(Cl)cc4-c4cc(C)nc5c(C(=O)NS(C)(=O)=O)csc45)c(=O)c3C2)ccn1` (single isomer, unassigned) [Compound 216], the IC50 at human eIF4E protein is under 0.1 µM; in assay [1] (Homo sapiens, COLO 205, 72 h), under 5 µM; in assay [2] (Homo sapiens, COLO 205, 6 h), under 5 µM.
For the molecule `COc1cc(CN(C)C2CCc3nc(C)n(CCOc4ccc(Cl)cc4-c4cc(C)nc5c(C(=O)O)csc45)c(=O)c3C2)ccn1` (single isomer, unassigned) [Compound 217], the IC50 was under 0.1 µM at human eIF4E protein; under 5 µM in assay [1] (Homo sapiens, COLO 205, 72 h); under 5 µM in assay [2] (Homo sapiens, COLO 205, 6 h).
On to `COc1cc(CN(C)C2CCc3nc(C)n(CCOc4ccc(Cl)cc4-c4cc(C)nc5c(C(=O)O)csc45)c(=O)c3C2)ccn1` (single isomer, unassigned) [Compound 218], for which the results for the IC50 (at human eIF4E protein; in assay [1]; in assay [2]) were under 0.1 µM, 5 to 20 µM and under 5 µM, respectively.
As to `Cc1cc(-c2cc(Cl)ccc2OCCn2c(C)nc3c(c2=O)C[C@@H](N(C)C[C@H]2C[C@H](C(F)(F)F)C2)CC3)c2scc(C(=O)O)c2n1` (single isomer, unassigned) [Compound 221], the IC50 at human eIF4E protein is under 0.1 µM; in assay [1] (Homo sapiens, COLO 205, 72 h) it was under 5 µM; in assay [2] (Homo sapiens, COLO 205, 6 h) it was under 5 µM.
`Cc1cc(-c2cc(Cl)ccc2OCCn2c(C)nc3c(c2=O)C[C@H](N(C)[C@H]2CC[C@@](C)(O)CC2)CC3)c2scc(C(=O)O)c2n1` (single isomer, unassigned) [Compound 224]: the IC50 on human eIF4E protein was under 0.1 µM; in assay [1] (Homo sapiens, COLO 205, 72 h), over 20 µM; in assay [2] (Homo sapiens, COLO 205, 6 h), over 20 µM.
For `Cc1cc(-c2cc(Cl)ccc2OCCn2c(C)nc3c(c2=O)C[C@H](N(C)[C@H]2CC[C@](C)(O)CC2)CC3)c2scc(C(=O)O)c2n1` (single isomer, unassigned) [Compound 227], the IC50 on human eIF4E protein was under 0.1 µM; in assay [1] (Homo sapiens, COLO 205, 72 h), over 20 µM; in assay [2] (Homo sapiens, COLO 205, 6 h), over 20 µM.
`Cc1cc(-c2ccc(Cl)cc2OCCn2c(C)nc3c(c2=O)C[C@H](N(C)[C@H]2C[C@@](C)(O)C2)CC3)c2scc(C(=O)O)c2n1` (single isomer, unassigned) [Compound 229]: the IC50 at human eIF4E protein is under 0.1 µM; in assay [1] (Homo sapiens, COLO 205, 72 h), over 20 µM; in assay [2] (Homo sapiens, COLO 205, 6 h), over 20 µM.
On to `Cc1cc(-c2cc(Cl)ccc2OCCn2c(C)nc3c(c2=O)CC(N(C)C2(C4CCC4)CC2)CC3)c2scc(C(=O)NS(C)(=O)=O)c2n1` (single isomer, unassigned) [Compound 231], for which the IC50 was under 0.1 µM at human eIF4E protein; 5 to 20 µM in assay [1] (Homo sapiens, COLO 205, 72 h); 5 to 20 µM in assay [2] (Homo sapiens, COLO 205, 6 h).
With `Cc1cc(-c2cc(Cl)ccc2OCCn2c(C)nc3c(c2=O)CC(N(C)C2(C4CCC4)CC2)CC3)c2scc(C(=O)NS(C)(=O)=O)c2n1` (single isomer, unassigned) [Compound 232], the results for the IC50 (at human eIF4E protein; in assay [1]; in assay [2]) were under 0.1 µM, under 5 µM and under 5 µM, respectively.
Consider `Cc1cc(-c2cc(Cl)ccc2OCCn2c(C)nc3c(c2=O)CC(N(C)Cc2ccc(=O)[nH]c2)CC3)c2scc(C(=O)O)c2n1` (single isomer, unassigned) [Compound 235], for which the IC50 was under 0.1 µM on human eIF4E protein; over 20 µM in assay [1] (Homo sapiens, COLO 205, 72 h); over 20 µM in assay [2] (Homo sapiens, COLO 205, 6 h).
In the case of `COC1CCN(C2CCc3nc(C)n(CCOc4ccc(Cl)cc4-c4cc(C)nc5c(C(=O)NS(C)(=O)=O)csc45)c(=O)c3C2)CC1` (single isomer, unassigned) [Compound 239], the half-maximal inhibitory concentration (IC50) is under 0.1 µM at human eIF4E protein; under 5 µM in assay [1] (Homo sapiens, COLO 205, 72 h); under 5 µM in assay [2] (Homo sapiens, COLO 205, 6 h).
For `COC1CCN(C2CCc3nc(C)n(CCOc4ccc(Cl)cc4-c4cc(C)nc5c(C(=O)NS(C)(=O)=O)csc45)c(=O)c3C2)CC1` (single isomer, unassigned) [Compound 240], the values for the half-maximal inhibitory concentration (IC50) (at human eIF4E protein; in assay [1]; in assay [2]) were under 0.1 µM, under 5 µM and 5 to 20 µM, respectively.
Take `Cc1cc(-c2cc(Cl)ccc2OCCn2c(C)nc3c(c2=O)CC(N(C)CC2CC(F)(F)C2)CC3)c2scc(C(=O)O)c2n1` (single isomer, unassigned) [Compound 258]: the IC50 is under 0.1 µM on human eIF4E protein; under 5 µM in assay [1] (Homo sapiens, COLO 205, 72 h); under 5 µM in assay [2] (Homo sapiens, COLO 205, 6 h).
For the molecule `Cc1cc(-c2cc(Cl)ccc2OCCn2c(C)nc3c(c2=O)C[C@@H](N(C)C[C@H]2C[C@@H](C(F)(F)F)C2)CC3)c2scc(C(=O)O)c2n1` (stereo in doubt) [Compound 189], the IC50 was under 0.1 µM on human eIF4E protein; under 5 µM in assay [1] (Homo sapiens, COLO 205, 72 h); under 5 µM in assay [2] (Homo sapiens, COLO 205, 6 h).
For the molecule `Cc1cc(-c2cc(Cl)ccc2OCCn2c(C)nc3c(c2=O)C[C@H](N(C)C[C@H]2C[C@@H](C(F)(F)F)C2)CC3)c2scc(C(=O)O)c2n1` (stereo in doubt) [Compound 223], the IC50 is under 0.1 µM on human eIF4E protein; under 5 µM in assay [1] (Homo sapiens, COLO 205, 72 h); under 5 µM in assay [2] (Homo sapiens, COLO 205, 6 h).
On to `Cc1cc(-c2cc(Cl)ccc2OCCn2c(C)nc3c(c2=O)CC(N(C)CC2CC(F)(F)C2)CC3)c2scc(C(N)=O)c2n1` (stereo not drawn) [Compound 138], for which the IC50 was 0.1 to 0.5 µM on human eIF4E protein; 5 to 20 µM in assay [1] (Homo sapiens, COLO 205, 72 h); over 20 µM in assay [2] (Homo sapiens, COLO 205, 6 h).
On the same counts, the results for `COC1CCN(C2CCc3nc(C)n(CCOc4ccc(Cl)cc4-c4cc(C)nc5c(C(=O)NCC(F)F)csc45)c(=O)c3C2)CC1` (stereo not drawn) [Compound 142] are 0.1 to 0.5 µM, 5 to 20 µM and over 20 µM.
On the same counts, the results for `COC1CCN(C2CCc3nc(C)n(CCOc4ccc(Cl)cc4-c4cc(C)nc5c(C(=O)NC6CC(F)(F)C6)csc45)c(=O)c3C2)CC1` (stereo not drawn) [Compound 144] are 0.5 to 5 µM, 5 to 20 µM and over 20 µM.
On the same counts, the results for `Cc1cc(-c2cc(Cl)ccc2OCCn2c(C)nc3c(c2=O)CC(N(C)CC2CC(F)(F)C2)CC3)c2scc(C(=O)NC3CC(F)(F)C3)c2n1` (stereo not drawn) [Compound 145] are 0.5 to 5 µM, 5 to 20 µM and over 20 µM.
Take `Cc1cc(-c2cc(Cl)ccc2OCCn2c(C)nc3c(c2=O)CC(N(C)CC2CC(F)(F)C2)CC3)c2scc(C(=O)NCC(F)F)c2n1` (stereo not drawn) [Compound 150]: the IC50 on human eIF4E protein was 0.5 to 5 µM; in assay [1] (Homo sapiens, COLO 205, 72 h), 5 to 20 µM; in assay [2] (Homo sapiens, COLO 205, 6 h), over 20 µM.
On the same counts, the results for `COC1CCN(C2Cc3c(cc(C)n(CCOc4ccc(Cl)cc4-c4cc(C)nc5c(C(=O)O)csc45)c3=O)C3(CC3)C2)CC1` (stereo not drawn) [Compound 151] are under 0.1 µM, under 5 µM and under 5 µM.
On the same counts, the results for `COC1[C@@H]2CC[C@H]1CN(C1CCc3nc(C)n(CCOc4ccc(Cl)cc4-c4cc(C)nc5c(C(=O)O)csc45)c(=O)c3C1)C2` (stereo partly drawn) [Compound 152] are under 0.1 µM, under 5 µM and under 5 µM.
